According to ChEMBL document CHEMBL1201861, “Genomics of Drug Sensitity in Cancer screening data, Wellcome Trust Sanger Institute”:

Assays:
HSC-3 = experiment: cells; assay type: functional, cell-based, Homo sapiens; details: Homo sapiens, HSC-3
Description: SANGER: Inhibition of human HSC-3 cell growth in a cell viability assay.

DoTc2-4510 = experiment: cells; assay type: functional, cell-based, Homo sapiens; details: Homo sapiens, DoTc2-4510
CAL-85-1 = experiment: cells; assay type: functional, cell-based, Homo sapiens; details: Homo sapiens, CAL-85-1;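 note: growth inhibition of human CAL-85-1 cells, read out with a cell viability assay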
Description: SANGER: Inhibition of human CAL-85-1 cell growth in a cell viability assay.

NCI-H1975 = experiment: cells; assay type: functional, cell-based, Homo sapiens; details: Homo sapiens, NCI-H1975
Description: SANGER: Inhibition of human NCI-H1975 cell growth in a cell viability assay.

NCI-H2009 = experiment: cells; assay type: functional, cell-based, Homo sapiens; details: Homo sapiens, NCI-H2009;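 note: cell viability assay measuring inhibition of NCI-H2009 cell growth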
Description: SANGER: Inhibition of human NCI-H2009 cell growth in a cell viability assay.

HGC-27 = experiment: cells; assay type: functional, cell-based, Homo sapiens; details: Homo sapiens, HGC-27;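 note: growth inhibition of human HGC-27 cells, read out in a cell viability assay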
Description: SANGER: Inhibition of human HGC-27 cell growth in a cell viability assay.

NCI-H1993 = experiment: cells; assay type: functional, cell-based, Homo sapiens; details: Homo sapiens, NCI-H1993;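 note: growth inhibition of the cancer cell line, assessed with a cell viability assay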
Description: SANGER: Inhibition of human NCI-H1993 cell growth in a cell viability assay.

NCI-H2170 = experiment: cells; assay type: functional, cell-based, Homo sapiens; details: Homo sapiens, NCI-H2170;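 note: cell viability assay measuring growth inhibition of human NCI-H2170 cancer cells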
Description: SANGER: Inhibition of human NCI-H2170 cell growth in a cell viability assay.

RH-18 = experiment: cells; assay type: functional, cell-based, Homo sapiens; details: Homo sapiens, Rh18;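 note: growth inhibition of human RH-18 cells, read out with a cell viability assay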
Description: SANGER: Inhibition of human RH-18 cell growth in a cell viability assay.

DK-MG = experiment: cells; assay type: functional, cell-based, Homo sapiens; details: Homo sapiens, DK-MG;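 note: growth inhibition of DK-MG cells, read out with a cell viability assay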
Description: SANGER: Inhibition of human DK-MG cell growth in a cell viability assay.

EFO-21 = experiment: cells; assay type: functional, cell-based, Homo sapiens; details: Homo sapiens, EFO-21;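 note: growth inhibition of EFO-21 cells measured with a viability assay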
Description: SANGER: Inhibition of human EFO-21 cell growth in a cell viability assay.

EPLC-272H = experiment: cells; assay type: functional, cell-based, Homo sapiens; details: Homo sapiens, EPLC-272H
Description: SANGER: Inhibition of human EPLC-272H cell growth in a cell viability assay.

SW900 = experiment: cells; assay type: functional, cell-based, Homo sapiens; details: Homo sapiens, SW900;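 note: IC50 is the concentration that inhibits SW900 cell growth, measured by a cell viability assay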
Description: SANGER: Inhibition of human SW900 cell growth in a cell viability assay.

J82 = experiment: cells; assay type: functional, cell-based, Homo sapiens; details: Homo sapiens, J82;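 note: growth inhibition of J82 cells, read out with a cell viability assay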
Description: SANGER: Inhibition of human J82 cell growth in a cell viability assay.

C3A = experiment: cells; assay type: functional, cell-based, Homo sapiens; details: Homo sapiens, C3A;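 note: growth inhibition of C3A human cells, quantified with a cell viability readout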
Description: SANGER: Inhibition of human C3A cell growth in a cell viability assay.

MeWo = experiment: cells; assay type: functional, cell-based, Homo sapiens; details: Homo sapiens, MeWo;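 note: growth inhibition of MeWo cells, determined by a cell viability readout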
Description: SANGER: Inhibition of human Mewo cell growth in a cell viability assay.

NCI-H1693 = experiment: cells; assay type: functional, cell-based, Homo sapiens; details: Homo sapiens, NCI-H1693;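 note: growth inhibition of the human cell line, read out with a cell viability assay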
Description: SANGER: Inhibition of human NCI-H1693 cell growth in a cell viability assay.

Detroit 562 = experiment: cells; assay type: functional, cell-based, Homo sapiens; details: Homo sapiens, Detroit 562;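 note: growth inhibition of human Detroit 562 cells, read out by a cell viability assay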
Description: SANGER: Inhibition of human Detroit562 cell growth in a cell viability assay.

P12-Ichikawa = experiment: cells; assay type: functional, cell-based, Homo sapiens; details: Homo sapiens, P12-Ichikawa
TI-73 = experiment: cells; assay type: functional, cell-based, Homo sapiens; details: Homo sapiens, TI-73;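 note: cell viability assay measuring how much compounds suppress growth of the cultured cell line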
Description: SANGER: Inhibition of human TI-73 cell growth in a cell viability assay.

KYSE-140 = experiment: cells; assay type: functional, cell-based, Homo sapiens; details: Homo sapiens, KYSE-140;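 note: cell viability assay measuring growth inhibition in human KYSE-140 cells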
Description: SANGER: Inhibition of human KYSE-140 cell growth in a cell viability assay.

YAPC = experiment: cells; assay type: functional, cell-based, Homo sapiens; details: Homo sapiens, YAPC;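 note: growth inhibition of YAPC cells, measured with a cell viability assay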
Description: SANGER: Inhibition of human YAPC cell growth in a cell viability assay.

TYK-nu = experiment: cells; assay type: functional, cell-based, Homo sapiens; details: Homo sapiens, TYK-nu;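 note: growth inhibition of human TYK-nu cells, read out by a cell viability assay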
Description: SANGER: Inhibition of human TYK-nu cell growth in a cell viability assay.

MIA PaCa-2 = experiment: cells; assay type: functional, cell-based, Homo sapiens; details: Homo sapiens, MIA PaCa-2;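 note: growth inhibition of MIA PaCa-2 cells, read out with a cell viability assay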
Description: SANGER: Inhibition of human MIA-PaCa-2 cell growth in a cell viability assay.

UMC-11 = experiment: cells; assay type: functional, cell-based, Homo sapiens; details: Homo sapiens, UMC-11;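 note: growth inhibition of UMC-11 cells, read out with a cell viability assay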
Description: SANGER: Inhibition of human UMC-11 cell growth in a cell viability assay.

BALL-1 = experiment: cells; assay type: functional, cell-based, Homo sapiens; details: Homo sapiens, BALL-1;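 note: growth inhibition of BALL-1 cells, read out with a cell viability assay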
Description: SANGER: Inhibition of human BALL-1 cell growth in a cell viability assay.

NB7 = experiment: cells; assay type: functional, cell-based, Homo sapiens; details: Homo sapiens, NB7;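 note: growth inhibition of NB7 cells, read out with a cell viability assay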
Description: SANGER: Inhibition of human NB7 cell growth in a cell viability assay.

NCI-H1792 = experiment: cells; assay type: functional, cell-based, Homo sapiens; details: Homo sapiens, NCI-H1792;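 note: growth inhibition of human NCI-H1792 cells, read out as cell viability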
Description: SANGER: Inhibition of human NCI-H1792 cell growth in a cell viability assay.

HEC-1 = experiment: cells; assay type: functional, cell-based, Homo sapiens; details: Homo sapiens, HEC-1;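 note: growth inhibition of the cell line, read out with a cell viability assay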
Description: SANGER: Inhibition of human HEC-1 cell growth in a cell viability assay.

COLO 205 = experiment: cells; assay type: functional, cell-based, Homo sapiens; details: Homo sapiens, COLO 205
Description: SANGER: Inhibition of human COLO-205 cell growth in a cell viability assay.

CESS = experiment: SANGER: Inhibition of human CESS cell growth in a cell viability assay.; assay type: functional, cell-based; details: Homo sapiens, CESS
UACC-812 = experiment: cells; assay type: functional, cell-based, Homo sapiens; details: Homo sapiens, UACC-812
Description: SANGER: Inhibition of human UACC-812 cell growth in a cell viability assay.

NCI-H1618 = experiment: cells; assay type: functional, cell-based, Homo sapiens; details: Homo sapiens, NCI-H1618;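 note: growth inhibition of human NCI-H1618 cells, measured by a cell viability assay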
Description: SANGER: Inhibition of human NCI-H1618 cell growth in a cell viability assay.

L-540 = experiment: cells; assay type: functional, cell-based, Homo sapiens; details: Homo sapiens, L-540;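 note: growth inhibition of the human L-540 cell line, read out with a viability assay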
Description: SANGER: Inhibition of human L-540 cell growth in a cell viability assay.

HCC1143 = experiment: cells; assay type: functional, cell-based, Homo sapiens; details: Homo sapiens, HCC1143;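 note: growth inhibition of human HCC1143 cells, read out with a cell viability assay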
Description: SANGER: Inhibition of human HCC1143 cell growth in a cell viability assay.

PLC-PRF-5 = experiment: cells; assay type: functional, cell-based, Homo sapiens; details: Homo sapiens, PLC-PRF-5;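 note: growth inhibition of human PLC-PRF-5 cells, read out with a viability assay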
Description: SANGER: Inhibition of human PLC-PRF-5 cell growth in a cell viability assay.

ST486 = experiment: SANGER: Inhibition of human ST486 cell growth in a cell viability assay.; assay type: functional, cell-based; details: Homo sapiens, ST486
IPC-298 = experiment: SANGER: Inhibition of human IPC-298 cell growth in a cell viability assay.; assay type: functional, cell-based; details: Homo sapiens, IPC-298
NCI-H1436 = experiment: cells; assay type: functional, cell-based, Homo sapiens; details: Homo sapiens, NCI-H1436;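 note: growth suppression of human NCI-H1436 cells, determined with a cell viability readout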
Description: SANGER: Inhibition of human NCI-H1436 cell growth in a cell viability assay.

CCF-STTG1 = experiment: cells; assay type: functional, cell-based, Homo sapiens; details: Homo sapiens, CCF-STTG1;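 note: growth inhibition of human CCF-STTG1 cells, determined with a cell viability read-out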
Description: SANGER: Inhibition of human CCF-STTG1 cell growth in a cell viability assay.

LC-1F = experiment: cells; assay type: functional, cell-based, Homo sapiens; details: Homo sapiens, LC-1F;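 note: growth inhibition of human LC-1F cells, read out with a cell viability assay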
Description: SANGER: Inhibition of human LC-1F cell growth in a cell viability assay.

RT-4 = experiment: SANGER: Inhibition of human RT4 cell growth in a cell viability assay.; assay type: functional, cell-based; details: Homo sapiens, RT-4
MFE-296 = experiment: SANGER: Inhibition of human MFE-296 cell growth in a cell viability assay.; assay type: functional, cell-based; details: Homo sapiens, MFE-296
SK-CO-1 = experiment: cells; assay type: functional, cell-based, Homo sapiens; details: Homo sapiens, SK-CO-1;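 note: growth inhibition of SK-CO-1 cells, determined by a viability readout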
Description: SANGER: Inhibition of human SK-CO-1 cell growth in a cell viability assay.

SNU-475 = experiment: cells; assay type: functional, cell-based, Homo sapiens; details: Homo sapiens, SNU-475
Description: SANGER: Inhibition of human SNU-475 cell growth in a cell viability assay.

H9 = experiment: cells; assay type: functional, cell-based, Homo sapiens; details: Homo sapiens, H9
Description: SANGER: Inhibition of human H9 cell growth in a cell viability assay.

SMILES: CS(=O)(=O)c1ccc(C(=O)Nc2ccc(Cl)c(-c3ccccn3)c2)c(Cl)c1 [VISMODEGIB]
- IC50 (HSC-3): > 10 µM
- IC50 (DoTc2-4510): > 10 µM
- IC50 (CAL-85-1): > 10 µM
- IC50 (NCI-H1975): > 10 µM
- IC50 (NCI-H2009): > 10 µM
- IC50 (HGC-27): > 10 µM
- IC50 (NCI-H1993): > 10 µM
- IC50 (NCI-H2170): > 10 µM
- IC50 (RH-18): > 10 µM
- IC50 (DK-MG): > 10 µM
- IC50 (EFO-21): > 10 µM
- IC50 (EPLC-272H): > 10 µM
- IC50 (SW900): > 10 µM
- IC50 (J82): > 10 µM
- IC50 (C3A): > 10 µM
- IC50 (MeWo): > 10 µM
- IC50 (NCI-H1693): > 10 µM
- IC50 (Detroit 562): > 10 µM
- IC50 (P12-Ichikawa): > 10 µM
- IC50 (TI-73): > 10 µM
- IC50 (KYSE-140): > 10 µM
- IC50 (YAPC): > 10 µM
- IC50 (TYK-nu): > 10 µM
- IC50 (MIA PaCa-2): > 10 µM
- IC50 (UMC-11): > 10 µM
- IC50 (BALL-1): > 10 µM
- IC50 (NB7): > 10 µM
- IC50 (NCI-H1792): > 10 µM
- IC50 (HEC-1): > 10 µM

SMILES: Oc1ccc2ccccc2c1SSc1c(O)ccc2ccccc12
- IC50 (COLO 205): > 32 µM
- IC50 (CESS): 12.4 µM
- IC50 (UACC-812): > 32 µM
- IC50 (NCI-H1618): > 32 µM
- IC50 (HSC-3): > 32 µM
- IC50 (DoTc2-4510): 10.5 µM
- IC50 (CAL-85-1): 7.37 µM
- IC50 (NCI-H2009): 5.04 µM
- IC50 (HGC-27): 17.2 µM
- IC50 (L-540): > 32 µM
- IC50 (HCC1143): > 32 µM
- IC50 (NCI-H1993): > 32 µM
- IC50 (NCI-H2170): > 32 µM
- IC50 (DK-MG): > 32 µM
- IC50 (EFO-21): > 32 µM
- IC50 (PLC-PRF-5): > 32 µM
- IC50 (ST486): 4.87 µM
- IC50 (J82): 7.05 µM
- IC50 (C3A): 30.3 µM
- IC50 (MeWo): > 32 µM
- IC50 (NCI-H1693): > 32 µM
- IC50 (IPC-298): > 32 µM
- IC50 (NCI-H1436): > 32 µM
- IC50 (Detroit 562): > 32 µM
- IC50 (P12-Ichikawa): > 32 µM
- IC50 (CCF-STTG1): > 32 µM
- IC50 (LC-1F): > 32 µM
- IC50 (KYSE-140): > 32 µM
- IC50 (YAPC): > 32 µM
- IC50 (TYK-nu): > 32 µM
- IC50 (MIA PaCa-2): 18.1 µM
- IC50 (UMC-11): > 32 µM
- IC50 (NCI-H1792): > 32 µM
- IC50 (HEC-1): > 32 µM
- IC50 (RT-4): > 32 µM
- IC50 (MFE-296): > 32 µM
- IC50 (SK-CO-1): > 32 µM
- IC50 (SNU-475): > 32 µM

SMILES: N#Cc1c(O)c2c(-c3ccc(-c4ccccc4O)cc3)csc2[nH]c1=O
- IC50 (COLO 205): > 1.02 µM
- IC50 (CESS): 0.101 µM
- IC50 (UACC-812): > 1.02 µM
- IC50 (NCI-H1618): > 1.02 µM
- IC50 (HSC-3): > 1.02 µM
- IC50 (DoTc2-4510): > 1.02 µM
- IC50 (CAL-85-1): > 1.02 µM
- IC50 (NCI-H2009): > 1.02 µM
- IC50 (HGC-27): > 1.02 µM
- IC50 (L-540): 0.848 µM
- IC50 (HCC1143): > 1.02 µM
- IC50 (NCI-H1993): > 1.02 µM
- IC50 (NCI-H2170): > 1.02 µM
- IC50 (DK-MG): > 1.02 µM
- IC50 (EFO-21): > 1.02 µM
- IC50 (PLC-PRF-5): > 1.02 µM
- IC50 (ST486): 0.135 µM
- IC50 (J82): > 1.02 µM
- IC50 (C3A): > 1.02 µM
- IC50 (MeWo): > 1.02 µM
- IC50 (NCI-H1693): > 1.02 µM
- IC50 (IPC-298): > 1.02 µM
- IC50 (NCI-H1436): 0.59 µM
- IC50 (Detroit 562): > 1.02 µM
- IC50 (P12-Ichikawa): 0.489 µM
- IC50 (CCF-STTG1): > 1.02 µM
- IC50 (LC-1F): > 1.02 µM
- IC50 (KYSE-140): > 1.02 µM
- IC50 (YAPC): > 1.02 µM
- IC50 (TYK-nu): > 1.02 µM
- IC50 (MIA PaCa-2): > 1.02 µM
- IC50 (UMC-11): > 1.02 µM
- IC50 (NCI-H1792): > 1.02 µM
- IC50 (HEC-1): > 1.02 µM
- IC50 (RT-4): > 1.02 µM
- IC50 (MFE-296): > 1.02 µM
- IC50 (SK-CO-1): > 1.02 µM
- IC50 (SNU-475): > 1.02 µM

SMILES: CC(C)c1ccccc1Cc1cc(C(=O)Nc2ccc(S(=O)(=O)c3ccccc3C(C)(C)C)cc2)c(O)c(O)c1O
- IC50 (HSC-3): 0.286 µM
- IC50 (DoTc2-4510): 1.48 µM
- IC50 (CAL-85-1): 1.43 µM
- IC50 (NCI-H1975): 1.38 µM
- IC50 (NCI-H2009): 0.245 µM
- IC50 (HGC-27): 0.14 µM
- IC50 (NCI-H1993): 1.04 µM
- IC50 (NCI-H2170): 1 µM
- IC50 (RH-18): 1.07 µM
- IC50 (DK-MG): 2.9 µM
- IC50 (EFO-21): 2.6 µM
- IC50 (EPLC-272H): 0.703 µM
- IC50 (SW900): 2.77 µM
- IC50 (J82): 1.13 µM
- IC50 (C3A): 1.82 µM
- IC50 (MeWo): 0.484 µM
- IC50 (NCI-H1693): 1.25 µM
- IC50 (Detroit 562): 1.27 µM
- IC50 (KYSE-140): 0.186 µM
- IC50 (YAPC): 0.801 µM
- IC50 (TYK-nu): 0.324 µM
- IC50 (MIA PaCa-2): 0.479 µM
- IC50 (UMC-11): 1.31 µM
- IC50 (NB7): 0.0293 µM
- IC50 (NCI-H1792): 0.69 µM
- IC50 (HEC-1): 0.0814 µM
- IC50 (RT-4): 10.6 µM

SMILES: CN(C)C(=N)NC(=N)N [METFORMIN]
- IC50 (HSC-3): > 20000 µM
- IC50 (DoTc2-4510): > 20000 µM
- IC50 (NCI-H1975): 11700 µM
- IC50 (HGC-27): > 20000 µM
- IC50 (H9): 7140 µM
- IC50 (EFO-21): > 20000 µM
- IC50 (EPLC-272H): > 20000 µM
- IC50 (SW900): 19300 µM
- IC50 (J82): 12900 µM
- IC50 (C3A): 11300 µM
- IC50 (MeWo): > 20000 µM
- IC50 (NCI-H1693): > 20000 µM
- IC50 (Detroit 562): 16500 µM
- IC50 (P12-Ichikawa): 12400 µM
- IC50 (TI-73): 13600 µM
- IC50 (KYSE-140): > 20000 µM
- IC50 (YAPC): > 20000 µM
- IC50 (TYK-nu): 16500 µM
- IC50 (MIA PaCa-2): > 20000 µM
- IC50 (UMC-11): > 20000 µM
- IC50 (BALL-1): > 20000 µM
- IC50 (NCI-H1792): > 20000 µM
- IC50 (HEC-1): 16200 µM
